Like-named read-outs stand apart in the source and are kept apart here.
How the values were obtained:
[1] = tested on: Gram-positive and Gram-negative bacterial species; assay: Broth microdilution MIC, panel summary; assay type: cell-based; conditions: read-out: MIC values
Method: (§1) Assays were carried out by a broth microdilution method using a 96-well plate according to guidelines defined by the European Committee on Antimicrobial Susceptibility Testing as described here. Overnight cultures of strains were grown in tryptic soy broth (TSB) at 37° C. The overnight cultures were diluted to a concentration of 1×10^6 bacteria/ml (OD600=0.01) in TSB media. To each well on 96 well plates, 100 μl of bacterially infected media at a concentration of 1×10^6/ml and compounds at various concentrations were added. An uninfected control (i.e. no bacteria) was also included. The plates were incubated at 37° C. wrapped in parafilm for 20 hrs. The growth was assessed by measuring the absorbance at 600 nm. The minimum inhibitory concentration (MIC) was determined to be the lowest concentration of compound that inhibits visible bacterial growth.

Klebsiella pneumoniae M6 = assay: Broth microdilution MIC; assay type: cell-based
Method: as §1

EMRSA-15 = assay: Broth microdilution MIC; assay type: cell-based
Method: as §1

[2] = tested on: Acinetobacter baumannii AYE; assay: Broth microdilution MIC; assay type: cell-based
Method: as §1

[3] = tested on: Acinetobacter baumannii 17978; assay: Broth microdilution MIC; assay type: cell-based
Method: as §1

[4] = tested on: Escherichia coli NCTC12923; assay: Broth microdilution MIC; assay type: cell-based
Method: as §1

[5] = tested on: Klebsiella pneumoniae 13368; assay: Broth microdilution MIC; assay type: cell-based
Method: as §1

[6] = tested on: Pseudomonas aeruginosa PA01; assay: Broth microdilution MIC; assay type: cell-based
Method: as §1

MSSA 9144 = assay: Broth microdilution MIC; assay type: cell-based; conditions: Staphylococcus aureus
Method: as §1

[7] = tested on: Enterococcus faecalis 12201; assay: Broth microdilution MIC; assay type: cell-based
Method: as §1

[8] = tested on: Pseudomonas aeruginosa 13437; assay: Broth microdilution MIC; assay type: cell-based
Method: as §1

[9] = tested on: Enterococcus faecalis 775; assay: Broth microdilution MIC; assay type: cell-based
Method: as §1

[10] = tested on: Enterococcus faecium 12204; assay: Broth microdilution MIC; assay type: cell-based
Method: as §1

EMRSA-16 = assay: Broth microdilution MIC; assay type: cell-based
Method: as §1

A. thaliana DHDPS = tested on: T1, A. thaliana DHDPS; assay: DHDPS-DHDPR coupled assay, dose response inhibitor assay; assay type: biochemical, Arabidopsis thaliana
T1 construct: AtDHDPS|10|0.00008; no borders, domain or tags given
Method: DHDPS enzyme activity was determined using the coupled assay in a Cary 4000 UV/Vis spectrophotometer at 340 nm in 1 cm acrylic cuvettes. A master mix was prepared for each reaction as per Table 1. Reaction mixtures containing enzymes, pyruvate, buffer and NADPH were incubated at 30° C. for 12 mins before the addition of ASA to initiate the reaction. The oxidation of NADPH to NADP^+ was then monitored at 340 nm at 30° C. as a function of time. The initial rate (ΔA340·min^−1) was calculated from the slope of the linear portion of the A340 versus time profile. All experiments were carried out in triplicate. The enzyme kinetic parameters, including KM values, were determined using the Michaelis-Menten equation (Equation 1). Unless otherwise stated, all kinetic data were fitted using the built-in equations in GraphPad Prism.
To determine/C50 values for the inhibitors, A. thaliana DHDPS enzyme activity was measured using the coupled assay (detailed above) in the presence of increasing concentrations of inhibitor. The initial rate was then plotted as a function of the log 10 of the inhibitor concentration and the/C50 determined according to Equation 2.

`O=C(O)CN1C(=O)S/C(=C\c2ccc(F)cc2)C1=O` [Compound 1, (Z)-2-(5-(4-Fluorobenzylidene)-2,4-dioxothiazolidin-3-yl)acetic Acid] was tested, and the MIC [1] was > 64 µg/mL, the MIC (Klebsiella pneumoniae M6; Klebsiella pneumoniae M6, replicate 1, read-out: MIC #1) was > 64 µg/mL and the MIC (Klebsiella pneumoniae M6; Klebsiella pneumoniae M6, replicate 2, read-out: MIC #2) was > 64 µg/mL. The MIC (Klebsiella pneumoniae M6; Klebsiella pneumoniae M6, replicate 3, read-out: MIC #3) was > 64 µg/mL, the MIC (EMRSA-15; EMRSA-15, replicate 1, read-out: MIC #1) was > 64 µg/mL and the MIC (EMRSA-15; EMRSA-15, replicate 2, read-out: MIC #2) was > 64 µg/mL. For the same molecule, the MIC (EMRSA-15; EMRSA-15, replicate 3, read-out: MIC #3) was > 64 µg/mL, the MIC ([2]; replicate 1, read-out: MIC #1) was > 64 µg/mL and the MIC ([2]; replicate 2, read-out: MIC #2) was > 64 µg/mL. For the same molecule, the MIC ([2]; replicate 3, read-out: MIC #3) was > 64 µg/mL, the MIC ([3]; Acinetobacter baumannii 17978, replicate 1, read-out: MIC #1) was > 64 µg/mL and the MIC ([3]; Acinetobacter baumannii 17978, replicate 2, read-out: MIC #2) was > 64 µg/mL. The MIC ([3]; Acinetobacter baumannii 17978, replicate 3, read-out: MIC #3) was > 64 µg/mL, the MIC ([4]; Escherichia coli NCTC12923, replicate 1, read-out: MIC #1) was > 64 µg/mL and the MIC ([4]; Escherichia coli NCTC12923, replicate 2, read-out: MIC #2) was > 64 µg/mL. The MIC ([4]; Escherichia coli NCTC12923, replicate 3, read-out: MIC #3) was > 64 µg/mL, the MIC ([5]; Klebsiella pneumoniae 13368, replicate 1, read-out: MIC #1) was > 64 µg/mL and the MIC ([5]; Klebsiella pneumoniae 13368, replicate 2, read-out: MIC #2) was > 64 µg/mL. For the same molecule, the MIC ([5]; Klebsiella pneumoniae 13368, replicate 3, read-out: MIC #3) was > 64 µg/mL, the MIC ([6]; Pseudomonas aeruginosa PA01, replicate 1, read-out: MIC #1) was > 64 µg/mL and the MIC ([6]; Pseudomonas aeruginosa PA01, replicate 2, read-out: MIC #2) was > 64 µg/mL. For the same molecule, the MIC ([6]; Pseudomonas aeruginosa PA01, replicate 3, read-out: MIC #3) was > 64 µg/mL, the MIC (MSSA 9144; MSSA 9144, replicate 1, read-out: MIC #1) was > 64 µg/mL and the MIC (MSSA 9144; MSSA 9144, replicate 2, read-out: MIC #2) was > 64 µg/mL. The MIC (MSSA 9144; MSSA 9144, replicate 3, read-out: MIC #3) was > 64 µg/mL, the MIC ([7]; Enterococcus faecalis 12201, replicate 1, read-out: MIC #1) was > 64 µg/mL and the MIC ([7]; Enterococcus faecalis 12201, replicate 2, read-out: MIC #2) was > 64 µg/mL. The MIC ([7]; Enterococcus faecalis 12201, replicate 3, read-out: MIC #3) was > 64 µg/mL, the MIC ([8]; Pseudomonas aeruginosa 13437, replicate 1, read-out: MIC #1) was > 64 µg/mL and the MIC ([8]; Pseudomonas aeruginosa 13437, replicate 2, read-out: MIC #2) was > 64 µg/mL. For the same molecule, the MIC ([8]; Pseudomonas aeruginosa 13437, replicate 3, read-out: MIC #3) was > 64 µg/mL, the MIC ([9]; Enterococcus faecalis 775, replicate 1, read-out: MIC #1) was > 64 µg/mL and the MIC ([9]; Enterococcus faecalis 775, replicate 2, read-out: MIC #2) was > 64 µg/mL. For the same molecule, the MIC ([9]; Enterococcus faecalis 775, replicate 3, read-out: MIC #3) was > 64 µg/mL, the MIC ([10]; Enterococcus faecium 12204, replicate 1, read-out: MIC #1) was > 64 µg/mL and the MIC ([10]; Enterococcus faecium 12204, replicate 2, read-out: MIC #2) was > 64 µg/mL. For the same molecule, the MIC ([10]; Enterococcus faecium 12204, replicate 3, read-out: MIC #3) was > 64 µg/mL, the MIC (EMRSA-16; EMRSA-16, replicate 1, read-out: MIC #1) was > 64 µg/mL and the MIC (EMRSA-16; EMRSA-16, replicate 2, read-out: MIC #2) was > 64 µg/mL. The MIC (EMRSA-16; EMRSA-16, replicate 3, read-out: MIC #3) was > 64 µg/mL and the IC50 (A. thaliana DHDPS) was 92.4 µM.

Reference: US20200068890A1 (Person to Whom the Inventor is Obligated to Assign, priority 2017, published 2020)
